Assays:
[1] = test system: MDA-MB-231 TNBC tumor xenografts; assay: IHC of ER stress markers in TNBC xenografts after a single dose; type: in vivo, mice; conditions: single dose 10 mg/kg oral, within 24 h
Description: (§1) Immunohistochemistry: Immunohistochemical studies were performed as described previously.^7 For the immunohistochemical studies, tissue sections were blocked in background sniper (Biocare Medical, RS966L) followed by overnight incubation with primary antibodies anti-Ki-67 antibody (1:1000, GeneTex cat #GTX16667 RRID:AB_422351) (link), anti-CHOP antibody (1:2000, Sigma, Cat #HPA068416), anti-PERK (phospho T982) antibody (1:150, Abcam Cat #ab192591, RRID:AB_2728666) link)), anti-phospho-eIF2α (Ser51) (1:50, Cell signaling, cs3398) and subsequent secondary antibody incubation for 60 min at room temperature. Immunoreactivity was visualized by using the DAB substrate and counterstained with hematoxylin (Vector Lab, Inc.). Percent of Ki67 positive proliferating cells was calculated in five randomly selected high-power fields (×40).

[2] = test system: Sum159 cells; assay: DIA-MS of whole cell lysates; type: cell-based, Human; conditions: 500 nM, 6 h
Description: Mass spectrometry based DIA analyses of whole cell lysates: Sum159 cells were treated with vehicle or ERX-41 (500 nM). After 6 h of treatment, cells were pelleted and snap-frozen and then lysed in buffer containing 5% SDS/50 mM triethylammonium bicarbonate (TEAB) in the presence of protease and phosphatase inhibitors (Halt; Thermo Scientific) and nuclease (Pierce™ Universal Nuclease for Cell Lysis; Thermo Scientific). Aliquots corresponding to 100 μg protein (EZQ™ Protein Quantitation Kit; Thermo Scientific) were reduced with tris (2-carboxyethyl)phosphine hydrochloride (TCEP), alkylated in the dark with iodoacetamide and applied to S-Traps (mini; Protifi) for tryptic digestion (sequencing grade; Promega) in 50 mM triethylammonium bicarbonate (TEAB). Peptides were eluted from the S-Traps with 0.2% formic acid in 50% aqueous acetonitrile and quantified using Pierce™ Quantitative Fluorometric Peptide Assay (Thermo Scientific). Data-independent acquisition mass spectrometry (DIA-MS) was conducted on an Orbitrap Fusion Lumos mass spectrometer (Thermo Scientific). On-line HPLC separation was accomplished with an RSLC NANO HPLC system (Thermo Scientific/Dionex: column, PicoFrit™ (New Objective; 75 μm i.d.) packed to 15 cm with C18 adsorbent (Vydac; 218MS 5 μm, 300 Å); mobile phase A, 0.5% acetic acid (HAc)/0.005% trifluoroacetic acid (TFA) in water, mobile phase B, 90% acetonitrile/0.5% HAc/0.005% TFA/9.5% water; gradient 3 to 42% B in 120 min; flow rate, 0.4 μl/min. A pool was made of the 6 samples (three replicates from each group), and 2-μg peptide aliquots were analyzed using gas-phase fractionation and 4-m/z windows (30k resolution for precursor and product ion scans, all in the orbitrap) to create a DIA chromatogram library^40 by searching against a Prosit-generated predicted spectral library^41 based on the UniProt_human_20191022 protein sequence database. Experimental samples were blocked by replicate and randomized within each replicate for sample preparation and analysis; injections of 2 μg of peptides and a 2-h HPLC gradient were employed. […]

[3] = test system: primary TNBC PDEs; assay: TNBC patient-derived explant (PDE) cultures ex vivo; type: cell-based, human
Excerpt: TNBC patient-derived explant (PDE) studies: For PDE studies excised tissue samples were processed and cultured ex vivo as previously described. De-identified patient tumors were obtained from the UTSW Tissue Repository after institutional review board approval (STU-032011-187). Inclusion criteria included women with prior histologic confirmation of TNBC who were undergoing surgical extirpation or biopsy of their primary tumor. Prior treatment with chemotherapy and/or radiation was allowed. Exclusion criteria included concurrent or prior diagnosis of other malignancies or prior evidence of ERα+ or HER2+ breast cancer. All cases were reviewed by the UTSW Tissue Repository in advance and patients were consented for their tissue to be used for laboratory research. Only de-identified information was shared with the laboratory. None of the laboratory personnel had access to additional patient information. No attrition was noted. Briefly, fresh tumor samples were incubated on gelatin sponges in culture medium containing 10% FBS, followed by treatment with either vehicle or presence of 2.5 μM ERX-41 for 72 h. Representative tissues were fixed in 10% formalin at 4° C. overnight and subsequently processed into paraffin blocks. Sections were then processed for immunohistochemical analysis.
as §1, with “Percent of Ki67 positive proliferating cells was calculated in five randomly selected high-power fields (×40).” left out

[4] = Tolerability of daily dosing in mice (pilot MTD); type: in vivo; conditions: daily oral or intraperitoneal, up to 100 mg/kg
Description: Animal Studies: All animal experiments were performed using UTHSA and UTSW IACUC approved protocols. For cell based xenograft tumor assays, TNBC cells (2×10^5-2×10^6) were mixed with an equal volume of matrigel and implanted in the mammary fat pads of 6-week-old female athymic nude mice as described^33. BALB/c mice were used for D2A1 syngeneic model. Once tumors reached measurable size, mice were divided into control (vehicle) and ERX-41 (10 mg/kg/oral) treatment groups. Mice bearing TNBC PDX tumors were purchased from Jackson laboratory (TM00089; TM00096; TM00098). TNBC PDX line UTPDX0001 establishment was earlier described^38. WHIM-20 ER+PDX model was purchased from Horizon Labs. OCa-PDX-38 was received from UTHSA ObGyn tissue procurement core. When tumors reached ˜750 mm^3 they were dissected into 2 mm^3 pieces and implanted into the mammary fat pads of 6 weeks old female SCID or NSG mice. When the tumor volume reached ˜200 mm^3, mice were randomized for treatment. The mice were monitored daily for adverse toxic effects and tumor volume was measured every 3-4 days using calipers. For establishing ES2 tumors, ES2/GFP/LUC cells were injected i.p. and tumors were measured twice a week using Xenogen in vivo imaging system. […] The mice were monitored daily for adverse toxic effects. […] The sections were scored by two independent evaluators blinded to the patient's clinical status.

[5] = test system: HMEC cells; assay: Live cell imaging with SYTOX Green, cell death in HMEC; type: cell-based
Description: Live cell imaging: Live cell images were acquired by Lionheart FX automated microscope (BioTek). Cells were plated one day before the experiment. For cell death assay, 0.2 μM SYTOX Green was added into the plate 15 min before the experiment.

CC(C)COc1cc(C(=O)Nc2ccc(C(=O)N[C@H]3CC[C@H](C)CC3)cc2OCC(C)C)ccc1NC(=O)c1ccc([N+](=O)[O-])c(OCCO)c1 [ERX-41]
ER stress markers in tumor xenograft tissues [1]: enhanced p-PERK, and p-eIF2α staining
number of cellular proteins with significantly affected expression [2]: 189
number of down-regulated proteins [2]: 153
number of up-regulated proteins [2]: 36
UPR pathway markers in explants ([3]; IHC, within 24 h after treatment): enhanced pPERK, CHOP (protein product of DDIT3 gene) and peIF2a staining
apoptosis (cleaved caspase 3 staining) of explants ([3]; ex vivo): increased apoptosis
proliferation (Ki67 staining) of explants ([3]; ex vivo): decreased proliferation
tolerability [4]: well tolerated by mice, with no clear evidence of toxicity
induction of cell death in HMEC [5]: did not significantly induce cell death

From patent publication US20250114313A1, “OLIGO-BENZAMIDE ANALOGS AND THEIR USE IN CANCER TREATMENT” (BOARD OF REGENTS, THE UNIVERSITY OF TEXAS SYSTEM, priority 2022, published 2025)
